Source: patent US8481537B2, “Caspase inhibitors based of pyridazinone scaffold” (LG Life Sciences Ltd., priority 2006, dated 2013)

Experiments:
Caspase-8 = biological target: T1, Caspase-8 (Homo sapiens, UniProt Q14790); experiment: Caspase inhibitory effect, fluorescent substrate AcDEVD-AFC; assay type: biochemical; conditions: pH 7.5; 2.1 nM caspase-8, 50 μM AcDEVD-AFC, 25° C., pH 7.50; read-out: Caspase-8 Kobs/[I] (converted)
T1 construct: p10 and p20 subunits (Thornberry, N. A. et al, Nature, 1992, 356, 768) were expressed in E. coli; made in house; host or cells: E. coli
T1 sequence (Q14790 217-374 limits assumed, species assumed): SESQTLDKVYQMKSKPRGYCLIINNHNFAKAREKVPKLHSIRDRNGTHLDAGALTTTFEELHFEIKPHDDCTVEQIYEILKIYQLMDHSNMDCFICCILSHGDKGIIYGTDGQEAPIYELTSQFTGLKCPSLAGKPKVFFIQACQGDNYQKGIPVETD
T1 sequence (Q14790 385-479 limits assumed, species assumed): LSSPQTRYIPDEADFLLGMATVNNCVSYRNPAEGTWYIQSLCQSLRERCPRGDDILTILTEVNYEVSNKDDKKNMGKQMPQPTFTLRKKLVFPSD
Method: Caspase-1 and caspase-8 known as cysteine proteases in the form of α2β2 were expressed, purified, and activated by modifying a method known in Thornberry, N. A. et al, Nature, 1992, 356, 768. Thornberry, N. A. Methods in Enzymology, 1994, 244, 615. Walker, N. P. C. et al. Cell, 1994, 78, 343, and caspase-9 was also purified by a similar method, and the inhibitory activity against them was tested. Briefly describing, p10 and p20 subunits (Thornberry, N. A. et al, Nature, 1992, 356, 768) were expressed in E. coli and purified by nickel column and anionic exchange chromatography to give caspase-1, caspase-8 and caspase-9. The fluorescent substrates AcYVAD-AFC for thus obtained caspase-1, AcDEVD-AFC for caspase-8, and AcLEHD-AFC for caspase-9, were used for determining specific activity of the synthesized inhibitors. The enzyme reaction was carried out at 25° C. with various concentrations of the inhibitors in a buffer solution containing 50 mM HEPES(pH 7.50), 10% (w/v) sucrose, 0.1% (w/v) CHAPS, 100 mM NaCl, 1 mM EDTA, and 10 mM DTT in the presence of 50 μM AcYVAD-AFC for 10 nM caspase-1, 50 μM AcDEVD-AFC for 2.1 nM caspase-8, and 150 μM AcLEHD-AFC for 200 nM caspase-9. The inhibitory constants Ki and Kobs of the inhibitors were determined by measuring the reaction velocity with the time lapse using a fluorescent spectrometer and by obtaining the initial rate constant. Ki was calculated from the Lineweaver Burk Plot, and Kobs from the following Equation 1. Kobs=−ln(1−At/Aoo)/t [Equation 1]
At means cleavage rate (%) at time t, and
Aoo means the maximum cleavage rate (%).
Spectra MAX GeminiXS Fluorescent Spectrometer of Molecular Device Co. was used at the excitation wavelength of 405 nm and the emission wavelength of 505 nm.

[1] = tested on: Jurkat cell (ATCC TIB-152); experiment: Jurkat cell apoptosis induced by Fas antibody, WST-1 method; assay type: cell-based; conditions: Homo sapiens, amount of alive cells by WST-1
Method: The […] inhibitory activity of the inhibitors was determined by subjecting Jurkat cell (ATCC TIB-152) to apoptosis using Fas antibody (Upstate Biotech 05-201) and by detecting the color change according to the WST-1 method known in Francoeur A. M. and Assalian A. (1996) Biochemica 3, 19-25 to observe the amount of alive Jurkat cells when the cells were treated by the inhibitor. Spectra MAX 340 Spectrometer of Molecular Device Co. was used at the absorbance wavelength of 440 nm.

| SMILES | kinact/KI (Caspase-8) | IC50 [1] |
| --- | --- | --- |
| CC[C@@H](C(=O)N[C@@H](CC(=O)O)C(=O)COc1c(F)c(F)cc(F)c1F)c1ccnn(Cc2ccccc2C(C)(C)C)c1=O [Example 24-1, (S)-3-{(R)-2-[2-(2-tert-Butyl-benzyl)-3-oxo-2,3-dihydro-pyridazin-4-yl]-butyrylamino}-4-oxo-5-(2,3,5,6-tetrafluoro-phenoxy)-pentanoic acid] | 63300 M⁻¹ s⁻¹ | 12 nM |
| CC[C@H](C(=O)N[C@@H](CC(=O)O)C(=O)COc1c(F)c(F)cc(F)c1F)c1ccnn(Cc2ccccc2C(C)(C)C)c1=O [Example 24-2, (S)-3-{(S)-2-[2-(2-tert-Butyl-benzyl)-3-oxo-2,3-dihydro-pyridazin-4-yl]-butyrylamino}-4-oxo-5-(2,3,5,6-tetrafluoro-phenoxy)-pentanoic acid] | 1830 M⁻¹ s⁻¹ | 4150 nM |
| CC[C@@H](C(=O)N[C@@H](CC(=O)O)C(=O)COc1c(F)c(F)cc(F)c1F)c1ccnn(Cc2cccc(C(C)(C)C)c2)c1=O [Example 25-1, (S)-3-{(R)-2-[2-(3-tert-Butyl-benzyl)-3-oxo-2,3-dihydro-pyridazin-4-yl]-butyrylamino}-4-oxo-5-(2,3,5,6-tetrafluoro-phenoxy)-pentanoic acid] | 26700 M⁻¹ s⁻¹ | 31 nM |
| CC[C@H](C(=O)N[C@@H](CC(=O)O)C(=O)COc1c(F)c(F)cc(F)c1F)c1ccnn(Cc2cccc(C(C)(C)C)c2)c1=O [Example 25-2, (S)-3-{(S)-2-[2-(3-tert-Butyl-benzyl)-3-oxo-2,3-dihydro-pyridazin-4-yl]-butyrylamino}-4-oxo-5-(2,3,5,6-tetrafluoro-phenoxy)-pentanoic acid] | 900 M⁻¹ s⁻¹ | 1940 nM |
| CC[C@@H](C(=O)N[C@@H](CC(=O)O)C(=O)COc1c(F)ccc(F)c1F)c1ccnn(Cc2ccccc2C(C)(C)C)c1=O [Example 26-1, (S)-3-{(R)-2-[2-(2-tert-Butyl-benzyl)-3-oxo-2,3-dihydro-pyridazin-4-yl]-butyrylamino}-4-oxo-5-(2,3,6-trifluoro-phenoxy)-pentanoic acid] | 28300 M⁻¹ s⁻¹ | 45 nM |
| CC[C@@H](C(=O)N[C@@H](CC(=O)O)C(=O)COc1c(F)cccc1F)c1ccnn(Cc2ccccc2C(C)(C)C)c1=O [Example 27-1, (S)-3-{(R)-2-[2-(2-tert-Butyl-benzyl)-3-oxo-2,3-dihydro-pyridazin-4-yl]-butyrylamino}-5-(2,6-difluoro-phenoxy)-4-oxo-pentanoic acid] | 11700 M⁻¹ s⁻¹ | 90 nM |
| CCC(C(=O)N[C@@H](CC(=O)O)C(=O)COP(=O)(c1ccccc1)c1ccccc1)c1ccnn(Cc2ccccc2C(C)(C)C)c1=O (stereo partly drawn) [Example 28, (S)-3-{2-[2-(2-tert-Butyl-benzyl)-3-oxo-2,3-dihydro-pyridazin-4-yl]-butyrylamino}-5-(diphenyl-phosphinoyloxy)-4-oxo-pentanoic acid] | 56700 M⁻¹ s⁻¹ | 365 nM |
